This is an account of results in patent publication US6214992A (Hoechst Aktiengesellschaft, priority 1996, dated 2001).

The subject of experiment [1] is Mongolian gerbils. Briefly: transient global ischemia, CA1 hippocampus nerve cell damage. Type of experiment: in vivo, Mongolian gerbil. Particulars: Meriones unguiculatus, ip, 168 h, histopathological score after 7 days versus untreated control, read-out: Inhibition of the neuronal CA1 hippocampus damage; for inhibition in vivo at 10 mg/kg: Dose 10 mg/kg intraperitoneally 30 minutes after 3-minute ischemia. As to the method: To carry out the experiment, which took place according to the guidelines of the German Animal Protection Act, 30 male Mongolian gerbils having a body weight of between 60 and 70 g were randomly divided into two groups each containing 15 animals. The respective test substance was administered to the animals of the first group 30 minutes after the ischemia period by intraperitoneal injection, while the animals of the second group, which served as an untreated control group, only received the same volume of the vehicle concerned. To produce the temporary forebrain ischemia, the animals were fixed in the supine position to a heated operated table, and both common carotid arteries were carefully exposed and closed for 3 minutes by means of microaneurysm clips. 7 days after the 3-minute ischemia period, the animals were decapitated under halothane anesthesia, the brains were rapidly and carefully removed, first fixed by immersion in Carnoy's solution (ethanol/chloroform/acetic acid=6/3/1) and then embedded in paraffin. Subsequently 4 to 6 μm thick coronal sections through the hippocampus were prepared approximately at the height of the bregma and these were stained with hematoxylin and eosin. After this, the extent of eosinophilic necrosis of the pyramidal cells in the CA1 region of the hippocampus was determined by light microscopy in the course of a blind experiment by means of a semiquantitative histopathological score (0=none; 1=slight; 2=medium severe; 3=severe and 4=complete necroses). The assessment variable used for the neuroprotective action was the percentage change in the mean histopathological score of the preparation group compared to that of the untreated control group.

The test system of a further experiment is C57BL/6 mice. Briefly: endotoxin (LPS)-induced lethal shock, decrease in mortality. Type of experiment: in vivo. Particulars: Mus musculus, ip, read-out: Inhibition of mortality. The protocol:
For the testing of preparations for antishock action, various experimental animal models have been developed.
To carry out the experiments, a mixture of 10 ng of LPS from Salmonella abortus equi. and 7.5 mg of galactosamine in 0.2 ml of phosphate-buffered,physiological saline solution was administered to each animal by intravenous injection, which as a rule led to death within 6 to 9 hours. The test preparations were administered intraperitoneally one hour before LPS provocation at a dose of 100 mg/kg. The animals of the control group (n=10) instead of this received pure 0.9% saline solution as placebo. To assess the action of the preparation, the number of surviving animals was determined in the treated group (n=10) 48 hours after LPS administration and from this the percentage inhibition of mortality was determined with respect to the mortality in the control group.

A further experiment deals with rat. The conditions noted are these: comparable experimental conditions, J. Cereb. Blood Flow Metab. 1994, 14/1: 166-173; cited from earlier work.
Experiment [2] has as its system Mongolian gerbils. The conditions noted are these: gerbil, comparable experimental conditions; J. Cereb. Blood Flow Metab. 1987, 7/1: 74-81; cited from earlier work.
[3] abbreviates: 100 mg/kg intraperitoneally one hour before LPS/galactosamine, survivors 48 hours after LPS, versus placebo control.

Like-named read-outs stand apart in the source and are kept apart here.

For the molecule `CCCCn1c(=O)n(COCCC)c(=O)c2[nH]cnc21` [Compound 30], the inhibition in vivo at 10 mg/kg with Mongolian gerbils [1] came to 24%. Same read-out and setting: in the case of `CCCCn1c(=O)n(CCOCC)c(=O)c2[nH]cnc21` [Compound 24] it was 30%; in that of `COCCn1c(=O)c2[nH]cnc2n(C)c1=O` [Compound 6], 20%. On to `CCCn1c(=O)n(CCOC)c(=O)c2[nH]cnc21` [Compound 8], for which the inhibition in vivo at 100 mg/kg in the experiment on C57BL/6 mice (48 h) came out at 30%. Regarding `CCCOCn1c(=O)c2[nH]cnc2n(C)c1=O` [Compound 26], in the experiment with C57BL/6 mice (setting [3]), the inhibition in vivo at 100 mg/kg came to 100%. Still for that read-out and setting: the result for `CC(C)COCn1c(=O)c2[nH]cnc2n(C)c1=O` [Compound 48, 1-Isobutoxymethyl-3-methylxanthine] reads 40%. With `CCCOCn1c(=O)c2[nH]cnc2n(CCC)c1=O` [Compound 28], in the experiment on Mongolian gerbils [1], the inhibition in vivo at 10 mg/kg was 30%.

On to `CCCCOCn1c(=O)c2[nH]cnc2n(C)c1=O` [Compound 40], for which the inhibition in vivo at 100 mg/kg in the experiment with C57BL/6 mice (setting [3]) was determined as 40%.

On to `CCCOCn1c(=O)c2[nH]cnc2n(-c2ccccc2)c1=O` [Compound 32, 3-Phenyl-1-propoxymethylxanthine], for which the inhibition in vivo at 100 mg/kg in the experiment on C57BL/6 mice (setting [3]) is 90%.

Regarding `CCCCOCCn1c(=O)c2c(ncn2Cc2ccccc2)n(CC)c1=O` [Compound 114], the inhibition in vivo at 10 mg/kg in the experiment on Mongolian gerbils [1] is 27%. On to `CCCOCCn1c(=O)c2[nH]cnc2n(C2CC2)c1=O` [Compound 39], for which the inhibition in vivo at 10 mg/kg in the experiment with Mongolian gerbils [1] was determined as 36%. Moreover, the inhibition in vivo at 100 mg/kg in the experiment on C57BL/6 mice (setting [3]) worked out at 30%. Take `CCCOCn1c(=O)c2[nH]cnc2n(CC(C)C)c1=O` [Compound 31, 3-Isobutyl-1-propoxymethylxanthine]: in the experiment with C57BL/6 mice (setting [3]), the inhibition in vivo at 100 mg/kg came to 30%. Turning to `CCCOCn1c(=O)c2c(ncn2Cc2ccccc2)n(C2CC2)c1=O` [Compound 103], the inhibition in vivo at 10 mg/kg in the experiment with Mongolian gerbils [1] worked out at 32%. Take `CCn1c(=O)n(COCCOC)c(=O)c2[nH]cnc21` [Compound 54]: the inhibition in vivo at 10 mg/kg in the experiment with Mongolian gerbils [1] is 36%. Also, the inhibition in vivo at 100 mg/kg in the experiment with C57BL/6 mice (setting [3]) was 30%. As to `CCCOCCn1c(=O)c2[nH]cnc2n(CC)c1=O` [Compound 36], the inhibition in vivo at 10 mg/kg in the experiment on Mongolian gerbils [1] is 23%. On to `CCCOCCn1c(=O)c2[nH]cnc2n(CCC)c1=O` [Compound 37, 1-(2-Propoxyethyl)-3-propylxanthine], for which the inhibition in vivo at 100 mg/kg in the experiment with C57BL/6 mice (setting [3]) came to 80%. Take `CCn1c(=O)n(CCOC)c(=O)c2c1ncn2Cc1ccccc1` [Compound 77]: the inhibition in vivo at 10 mg/kg with Mongolian gerbils [1] is 33%. Take `CCOCCn1c(=O)c2[nH]cnc2n(C)c1=O` [Compound 21]: in the experiment on C57BL/6 mice (setting [3]), the inhibition in vivo at 100 mg/kg worked out at 40%.

Turning to `CCn1c(=O)n(COc2ccccc2)c(=O)c2[nH]cnc21` [Compound 58], in the experiment with Mongolian gerbils [1], the inhibition in vivo at 10 mg/kg came out at 20%.

With `Cn1c(=O)c2[nH]cnc2n(C)c1=O` [theophylline, 1,3-dimethylxanthine], the “inhibition of ischemic nerve cell damage” value in the experiment on rat and with Mongolian gerbils [2] was “inhibits ischemic nerve cell damage neither” in each case. Consider `CCn1c(=O)n(COc2ccc(Cl)cc2)c(=O)c2[nH]cnc21` [Compound 66], for which the inhibition in vivo at 10 mg/kg in the experiment on Mongolian gerbils [1] worked out at 23%.

`CCOCn1c(=O)c2[nH]cnc2n(CC)c1=O` [Compound 17]: the inhibition in vivo at 10 mg/kg with Mongolian gerbils [1] is 66%. In the experiment on C57BL/6 mice (setting [3]), the inhibition in vivo at 100 mg/kg is 100%. Consider `COCn1c(=O)c2[nH]cnc2n(C)c1=O` [Compound 1, 1-Methoxymethyl-3-methylxanthine], for which, in the experiment on C57BL/6 mice (setting [3]), the inhibition in vivo at 100 mg/kg amounted to 80%.

`CCCCn1c(=O)n(CCOc2ccccc2)c(=O)c2[nH]cnc21` [Compound 63]: the inhibition in vivo at 10 mg/kg in the experiment on Mongolian gerbils [1] is 27%. On the same count and under the same terms, in the case of `CCOCCn1c(=O)c2[nH]cnc2n(C2CC2)c1=O` [Compound 25] it was 24%. In the case of `CCCOCn1c(=O)c2[nH]cnc2n(CC2CC2)c1=O` [Compound 34, 3-Cyclopropylmethyl-1-propoxymethylxanthine], the inhibition in vivo at 100 mg/kg in the experiment with C57BL/6 mice (setting [3]) came to 30%. On to `CCCOCn1c(=O)c2[nH]cnc2n(CC)c1=O` [Compound 27, 3-Ethyl-1-propoxymethylxanthine], for which the inhibition in vivo at 5 mg/kg in the experiment with Mongolian gerbils [1] (Dose 5 mg/kg intraperitoneally 30 minutes after 3-minute ischemia) amounted to 40%. Moreover, in the experiment on Mongolian gerbils [1], the inhibition in vivo at 10 mg/kg came to 67%. Further, in the experiment on C57BL/6 mice (setting [3]), the inhibition in vivo at 100 mg/kg came to 100%.

On to `CCn1c(=O)n(CCOC)c(=O)c2[nH]cnc21` [Compound 7], for which the inhibition in vivo at 10 mg/kg in the experiment with Mongolian gerbils [1] is 33%. Regarding `COCn1c(=O)c2[nH]cnc2n(C2CC2)c1=O` [Compound 5], in the experiment with Mongolian gerbils [1], the inhibition in vivo at 10 mg/kg is 20%. `CCn1c(=O)n(COC)c(=O)c2[nH]cnc21` [Compound 2]: the inhibition in vivo at 100 mg/kg with C57BL/6 mice (setting [3]) was 30%. For the molecule `CCn1c(=O)n(CCCOC)c(=O)c2c1ncn2Cc1ccccc1` [Compound 82], the inhibition in vivo at 10 mg/kg in the experiment with Mongolian gerbils [1] is 30%. For the molecule `CCCn1c(=O)n(CCOCC)c(=O)c2[nH]cnc21` [Compound 23], in the experiment on C57BL/6 mice (48 h), the inhibition in vivo at 100 mg/kg came to 40%. Regarding `CC(C)COCn1c(=O)c2[nH]cnc2n(C2CC2)c1=O` [Compound 50], the inhibition in vivo at 100 mg/kg in the experiment on C57BL/6 mice (setting [3]) is 40%. Same read-out and setting: in the case of `CCC(C)OCn1c(=O)c2[nH]cnc2n(CC)c1=O` (stereo not drawn) [Compound 52, 1-sec-Butoxymethyl-3-ethylxanthine] it was 30%.

`CCn1c(=O)n(CCOc2ccccc2)c(=O)c2[nH]cnc21` [Compound 61]: the inhibition in vivo at 10 mg/kg with Mongolian gerbils [1] turned out to be 23%. In the case of `CCOCn1c(=O)c2[nH]cnc2n(C)c1=O` [Compound 16], the inhibition in vivo at 100 mg/kg in the experiment on C57BL/6 mice (setting [3]) was determined as 100%. Still for that read-out and setting: in the case of `CCCCOCn1c(=O)c2[nH]cnc2n(CC)c1=O` [Compound 41] it was 40%; in that of `CCCCn1c(=O)n(COC)c(=O)c2[nH]cnc21` [Compound 4], 30%; in that of `CCCOCn1c(=O)c2[nH]cnc2n(C(C)C)c1=O` [Compound 29], 50%. As for `CCCCOCCn1c(=O)c2[nH]cnc2n(CC)c1=O` [Compound 44], the inhibition in vivo at 10 mg/kg with Mongolian gerbils [1] is 64%. The inhibition in vivo at 100 mg/kg in the experiment on C57BL/6 mice (setting [3]) turned out to be 30%. As for `CCCOCCn1c(=O)c2[nH]cnc2n(C)c1=O` [Compound 35], in the experiment with C57BL/6 mice (setting [3]), the inhibition in vivo at 100 mg/kg worked out at 30%.
